The values below come from patent US12415803B2, “Fused imidazopyridines as reversible inhibitors of Brutons Tyrosine Kinase (BTK)” (Merck Patent GmbH, priority 2018, dated 2025).

Assay [1] has as its target full-length human BTK (Homo sapiens (Human), UniProt Q06187). Description: BTK IC50 Enzyme Assay (microfluidic off-chip mobility shift kinase assay).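 Note: Read-out separates phosphorylated peptide product from substrate by their charge-to-mass difference, with IC50 fitted from log inhibitor concentration against percent enzyme activity.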 The assay is classed as biochemical. Particulars: Btk Enzymatic IC50 Assay, 90 min at 27 C.
The target of assay [2] is Btk (Homo sapiens (Human), UniProt Q06187). As to the kind of experiment: Btk PBMC IC50 Cell Assay (anti-IgM-induced CD69 expression on B cells).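 Note: freshly isolated human PBMCs, IC50 from concentration-response of the share of CD19+ cells expressing CD69 after anti-IgM BCR stimulation.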 Type of assay: cell-based. Particulars: anti-IgM-induced CD69 expression on CD19 positive cells in human PBMCs.
Sequence of Btk (Q06187 whole entry): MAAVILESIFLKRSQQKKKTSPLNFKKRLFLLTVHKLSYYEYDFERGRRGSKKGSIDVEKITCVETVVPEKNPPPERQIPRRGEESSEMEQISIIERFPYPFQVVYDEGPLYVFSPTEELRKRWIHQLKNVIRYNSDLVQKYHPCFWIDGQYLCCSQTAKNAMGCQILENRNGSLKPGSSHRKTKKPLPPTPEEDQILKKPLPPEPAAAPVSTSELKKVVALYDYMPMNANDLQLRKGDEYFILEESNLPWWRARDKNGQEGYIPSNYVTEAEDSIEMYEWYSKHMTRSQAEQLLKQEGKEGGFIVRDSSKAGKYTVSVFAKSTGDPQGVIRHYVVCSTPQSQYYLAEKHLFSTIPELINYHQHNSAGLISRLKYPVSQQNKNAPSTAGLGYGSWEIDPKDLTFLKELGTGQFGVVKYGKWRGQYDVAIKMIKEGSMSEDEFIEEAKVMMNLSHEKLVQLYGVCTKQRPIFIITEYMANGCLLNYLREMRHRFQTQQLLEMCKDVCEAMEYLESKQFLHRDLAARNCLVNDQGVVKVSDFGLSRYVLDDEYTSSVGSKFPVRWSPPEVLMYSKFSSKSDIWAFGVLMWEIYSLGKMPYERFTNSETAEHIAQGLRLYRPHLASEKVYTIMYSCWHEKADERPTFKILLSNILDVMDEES

SMILES strings stand for the structures.

Sequence of full-length human BTK (Q06187 whole entry): as above

In the case of `Cc1nn(C)c(C)c1-c1nc2c(-c3ccc4c(c3)CCCCC4NC(=O)c3nc(C(C)(C)C)no3)ccnc2[nH]1` (stereo not drawn) [Compound 6, 3-tert-butyl-N-[2-[2-(trimethyl-1H-pyrazol-4-yl)-3H-imidazo[4,5-b]pyridin-7-yl]-6,7,8,9-tetrahydro-5H-benzo[7]annulen-5-yl]-1,2,4-oxadiazole-5-carboxamide], the IC50 (as a rule, the concentration that inhibits the measured activity by half) in assay [1] was under 1 nM; in assay [2], 1 to 10 nM.

Consider `Cn1cc(-c2nc3c(-c4ccc5c(c4)CCCCC5NC(=O)c4noc(C(C)(C)C)n4)ccnc3[nH]2)cn1` (stereo not drawn) [Compound 39, 5-tert-Butyl-[1,2,4]oxadiazole-3-carboxylic acid {2-[2-(1-methyl-1H-pyrazol-4-yl)-3H-imidazo[4,5-b]pyridin-7-yl]-6,7,8,9-tetrahydro-5H-benzocyclohepten-5-yl}-amide], for which the IC50 in assay [1] and in assay [2] was under 1 nM throughout.

`Cc1nn(C(C)C)c(C)c1-c1nc2c(-c3ccc4c(c3)CCCCC4NC(=O)c3noc(C4(C)CC4)n3)ccnc2[nH]1` (stereo not drawn) [Compound 32, 5-(1-Methyl-cyclopropyl)-[1,2,4]oxadiazole-3-carboxylic acid {2-[2-(1-isopropyl-3,5-dimethyl-1H-pyrazol-4-yl)-3H-imidazo[4,5-b]pyridin-7-yl]-6,7,8,9-tetrahydro-5H-benzocyclohepten-5-yl}-amide]: the IC50 in assay [1] was under 1 nM; in assay [2], 1 to 10 nM.

For `Cc1nn(C)c(C)c1-c1nc2c(-c3ccc4c(c3)OCCCC4NC(=O)c3nnc(C(C)(C)C)o3)ccnc2[nH]1` (stereo not drawn) [Compound 17, 5-tert-Butyl-[1,3,4]oxadiazole-2-carboxylic acid {8-[2-(1,3,5-trimethyl-1H-pyrazol-4-yl)-3H-imidazo[4,5-b]pyridin-7-yl]-2,3,4,5-tetrahydro-benzo[b]oxepin-5-yl}-amide], the values for the IC50 in assay [1] and in assay [2] were 1 to 10 nM and 10 to 100 nM, respectively.

In the case of `Cc1c(-c2nc3c(-c4ccc5c(c4)CCCC5NC(=O)c4nc(C5(C)CC5)no4)ccnc3[nH]2)cnn1C(C)C` (stereo not drawn) [Compound 146, 3-(1-Methyl-cyclopropyl)-[1,2,4]oxadiazole-5-carboxylic acid {6-[2-(1-isopropyl-5-methyl-1H-pyrazol-4-yl)-3H-imidazo[4,5-b]pyridin-7-yl]-1,2,3,4-tetrahydro-naphthalen-1-yl}-amide], the IC50 in assay [1] and in assay [2] was 1 to 10 nM in each case.

On to `Cc1nn(C(C)C)c(C)c1-c1nc2c(-c3ccc4c(c3)CCCC[C@@H]4NC(=O)c3nc(C4(C)CC4)no3)ccnc2[nH]1` [Compound 36, 3-(1-Methyl-cyclopropyl)-[1,2,4]oxadiazole-5-carboxylic acid {(S)-2-[2-(1-isopropyl-3,5-dimethyl-1H-pyrazol-4-yl)-3H-imidazo[4,5-b]pyridin-7-yl]-6,7,8,9-tetrahydro-5H-benzocyclohepten-5-yl}-amide], for which the IC50 in assay [1] is 1 to 10 nM; in assay [2] it was over 100 nM.

With `Cc1c(-c2nc3c(-c4ccc5c(c4)CCC[C@H]5NC(=O)c4noc(C(C)(C)C)n4)ccnc3[nH]2)cnn1C1CCOCC1` [Compound 156, 5-tert-Butyl-[1,2,4]oxadiazole-3-carboxylic acid ((R)-6-{2-[5-methyl-1-(tetrahydro-pyran-4-yl)-1H-pyrazol-4-yl]-3H-imidazo[4,5-b]pyridin-7-yl}-1,2,3,4-tetrahydro-naphthalen-1-yl)-amide], the IC50 in assay [1] was under 1 nM; in assay [2], 1 to 10 nM.

For the molecule `Cc1nn(C)c(C)c1-c1nc2c(-c3ccc4c(c3)CCCCC4NC(=O)c3noc(C(C)(C)C)n3)ccnc2[nH]1` (stereo not drawn) [Compound 8, 5-tert-Butyl-[1,2,4]oxadiazole-3-carboxylic acid {2-[2-(1,3,5-trimethyl-1H-pyrazol-4-yl)-3H-imidazo[4,5-b]pyridin-7-yl]-6,7,8,9-tetrahydro-5H-benzocyclohepten-5-yl}-amide], the IC50 in assay [1] is under 1 nM; in assay [2], 1 to 10 nM.

Take `Cc1nn(C)c(C)c1-c1nc2c(-c3ccc4c(c3)CCCC[C@@H]4NC(=O)c3nnc(C(C)(C)C)o3)ccnc2[nH]1` [Compound 122, 5-tert-Butyl-[1,3,4]oxadiazole-2-carboxylic acid {(S)-2-[2-(1,3,5-trimethyl-1H-pyrazol-4-yl)-3H-imidazo[4,5-b]pyridin-7-yl]-6,7,8,9-tetrahydro-5H-benzocyclohepten-5-yl}-amide]: the IC50 is 1 to 10 nM in assay [1] and over 100 nM in assay [2].

For `Cc1nn(C)c(C)c1-c1nc2c(-c3ccc4c(c3)CCCC[C@@H]4NC(=O)c3nc(C(C)(C)C)no3)ccnc2[nH]1` [Compound 141, 3-tert-Butyl-[1,2,4]oxadiazole-5-carboxylic acid {(S)-2-[2-(1,3,5-trimethyl-1H-pyrazol-4-yl)-3H-imidazo[4,5-b]pyridin-7-yl]-6,7,8,9-tetrahydro-5H-benzocyclohepten-5-yl}-amide], the IC50 in assay [1] was 10 to 100 nM; in assay [2] it was over 100 nM.

Turning to `Cc1nn(C)c(C)c1-c1nc2c(-c3ccc4c(c3)OCCC[C@H]4NC(=O)c3nnc(C(C)(C)C)o3)ccnc2[nH]1` [Compound 18, 5-tert-Butyl-[1,3,4]oxadiazole-2-carboxylic acid {(R)-8-[2-(1,3,5-trimethyl-1H-pyrazol-4-yl)-3H-imidazo[4,5-b]pyridin-7-yl]-2,3,4,5-tetrahydro-benzo[b]oxepin-5-yl}-amide], the IC50 in assay [1] and in assay [2] was over 100 nM throughout.

Take `CC(C)n1cc(-c2nc3c(-c4ccc5c(c4)CCCCC5NC(=O)c4nc(C(C)(C)C)no4)ccnc3[nH]2)cn1` (stereo not drawn) [Compound 106, 3-tert-Butyl-[1,2,4]oxadiazole-5-carboxylic acid {2-[2-(1-isopropyl-1H-pyrazol-4-yl)-3H-imidazo[4,5-b]pyridin-7-yl]-6,7,8,9-tetrahydro-5H-benzocyclohepten-5-yl}-amide]: the IC50 was under 1 nM in assay [1] and 1 to 10 nM in assay [2].

Consider `Cn1cc(-c2nc3c(-c4ccc5c(c4)OCCC[C@H]5NC(=O)c4nc(C(C)(C)C)no4)ccnc3[nH]2)cn1` [Compound 44, 3-tert-Butyl-[1,2,4]oxadiazole-5-carboxylic acid {(R)-8-[2-(1-methyl-1H-pyrazol-4-yl)-3H-imidazo[4,5-b]pyridin-7-yl]-2,3,4,5-tetrahydro-benzo[b]oxepin-5-yl}-amide], for which the IC50 in assay [1] was in the range of 1 to 10 nM; in assay [2], 10 to 100 nM.

As to `Cn1cc(-c2nc3c(-c4ccc5c(c4)CCCC[C@@H]5NC(=O)c4nnc(C(C)(C)C)o4)ccnc3[nH]2)cn1` [Compound 49, 5-tert-Butyl-[1,3,4]oxadiazole-2-carboxylic acid {(S)-2-[2-(1-methyl-1H-pyrazol-4-yl)-3H-imidazo[4,5-b]pyridin-7-yl]-6,7,8,9-tetrahydro-5H-benzocyclohepten-5-yl}-amide], the IC50 is under 1 nM in assay [1] and 1 to 10 nM in assay [2].

As to `Cn1cc(-c2nc3c(-c4ccc5c(c4)CCCC5NC(=O)c4nnc(C(C)(C)C)o4)ccnc3[nH]2)cn1` (stereo not drawn) [Compound 104, 5-tert-Butyl-[1,3,4]oxadiazole-2-carboxylic acid {6-[2-(1-methyl-1H-pyrazol-4-yl)-3H-imidazo[4,5-b]pyridin-7-yl]-1,2,3,4-tetrahydro-naphthalen-1-yl}-amide], the IC50 in assay [1] was in the range of 1 to 10 nM; in assay [2], 10 to 100 nM.

Regarding `Cn1cc(-c2nc3c(-c4ccc5c(c4)OCCC[C@H]5NC(=O)c4noc(C(C)(C)C)n4)ccnc3[nH]2)cn1` [Compound 46, 5-tert-Butyl-[1,2,4]oxadiazole-3-carboxylic acid {(R)-8-[2-(1-methyl-1H-pyrazol-4-yl)-3H-imidazo[4,5-b]pyridin-7-yl]-2,3,4,5-tetrahydro-benzo[b]oxepin-5-yl}-amide], the IC50 was under 1 nM in assay [1] and 1 to 10 nM in assay [2].

For `Cc1nn(C)c(C)c1-c1nc2c(-c3ccc4c(c3)OCCC[C@@H]4NC(=O)c3nnc(C(C)(C)C)o3)ccnc2[nH]1` [Compound 19, 5-tert-Butyl-[1,3,4]oxadiazole-2-carboxylic acid {(S)-8-[2-(1,3,5-trimethyl-1H-pyrazol-4-yl)-3H-imidazo[4,5-b]pyridin-7-yl]-2,3,4,5-tetrahydro-benzo[b]oxepin-5-yl}-amide], the IC50 in assay [1] was under 1 nM; in assay [2] it was 1 to 10 nM.

As for `Cn1cc(-c2nc3c(-c4ccc5c(c4)CCCC[C@H]5NC(=O)c4nnc(C(C)(C)C)o4)ccnc3[nH]2)cn1` [Compound 48, 5-tert-Butyl-[1,3,4]oxadiazole-2-carboxylic acid {(R)-2-[2-(1-methyl-1H-pyrazol-4-yl)-3H-imidazo[4,5-b]pyridin-7-yl]-6,7,8,9-tetrahydro-5H-benzocyclohepten-5-yl}-amide], the IC50 is 1 to 10 nM in assay [1] and over 100 nM in assay [2].

For the molecule `Cn1cc(-c2nc3nccc(-c4ccc5c(c4)CCCC[C@H]5NC(=O)N4CC(OC(C)(C)C)C4)c3[nH]2)cn1` [Compound 51, 3-tert-Butoxy-azetidine-1-carboxylic acid {(R)-2-[2-(1-methyl-1H-pyrazol-4-yl)-3H-imidazo[4,5-b]pyridin-7-yl]-6,7,8,9-tetrahydro-5H-benzocyclohepten-5-yl}-amide], the figures for the IC50 in assay [1] and in assay [2] were under 1 nM and 1 to 10 nM, respectively.

For the molecule `Cn1cc(-c2nc3nccc(-c4ccc5c(c4)CCCC[C@H]5NC(=O)N4CC(OC(C)(C)C)C4)c3[nH]2)cn1` [Compound 50, 3-tert-Butoxy-azetidine-1-carboxylic acid {(R)-2-[2-(1-methyl-1H-pyrazol-4-yl)-3H-imidazo[4,5-b]pyridin-7-yl]-6,7,8,9-tetrahydro-5H-benzocyclohepten-5-yl}-amide], the values for the IC50 in assay [1] and in assay [2] were 1 to 10 nM and over 100 nM, respectively.

With `Cc1nn(C)c(C)c1-c1nc2c(-c3ccc4c(c3)CCCC4NC(=O)c3nc(C(C)(C)C)no3)ccnc2[nH]1` (stereo not drawn) [Compound 68, 3-tert-Butyl-[1,2,4]oxadiazole-5-carboxylic acid {6-[2-(1,3,5-trimethyl-1H-pyrazol-4-yl)-3H-imidazo[4,5-b]pyridin-7-yl]-1,2,3,4-tetrahydro-naphthalen-1-yl}-amide], the IC50 lay within 1 to 10 nM in assay [1] and 10 to 100 nM in assay [2].
